Read-outs that look alike come from different tables or passages of the source.
Experiments:
W10 cells [1] = experiment: Peptide competition for phage binding; parameters: species or system human; details: for competition of the 2 peptides with each other for W10 cell binding: data not shown; for specificity of binding (lack of competition with scrambled peptides): free peptide against scrambled peptide
Experimental: Cells were plated at 100,000 cells/well in 24 well plates and incubated overnight. The corresponding synthetic peptide for each peptide phage or control peptides (unrelated or scrambled sequence peptide) were pre-incubated with cells at 5 nM or 5 μM in W10 growth media supplemented with 2% BSA for 30 min at 4° C. Peptide phages at 2×10^10 pfu/well were added to the peptide dilution and incubated with live cells for 1 h at 4° C. Peptide phage bound to cells was detected by immunostaining and fluorescence microscopy using anti-phage antibody on fixed and permeabilized cells or quantified by titration of phages recovered from cell lysates. The percentage of recovered phage for the competition assay was normalized by the recovered phage in the no-peptide control. Duplicate independent experiments were performed for competition experiments.

[2] = system: hPS cells differentiated using culture conditions for definitive endoderm; experiment: Peptide targeted Qdot labeling of differentiating hPS cells; assay type: cell-based, human; details: definitive endoderm conditions (high activin A, low serum); 5 nM, 16 h at 37° C.
Experimental: (§1) FIG. 7A and FIG. 7B. Labeling of a differentiating pluripotent stem cells using peptide targeted Qdots. FIG. 7A: Selective peptide targeting of human embryonic stem cells (H9) that were differentiated into the three germ layers (see methods for protocols) for 6-8 days compared to undifferentiated control. Differentiated cells were incubated for 16 h at 37° C. with 5 nM of Qdot complexes, washed and imaged using a fluorescence microscope. Representative bright-field and fluorescent signal of W10 peptide Qdot complexes (red) are shown. FIG. 7B: Cells were stained with the following differentiation markers to verify the germ layer commitment: nestin for ectoderm, α-actinin for mesoderm, SOX17 for endoderm conditions and OCT3/4 for undifferentiated cells.
(§2) 2 μM of Qdot Streptavidin conjugate (Qdot605 ITK SA, Invitrogen, Q10001MP) were diluted in 100 μl of binding buffer (supplied with Qdot605 ITK SA) and incubated with 100-fold excess of biotinylated peptide on ice for 1 h. Uncoupled biotinylated peptide was removed from the mixture by incubating it with streptavidin magnetic beads equilibrated in PBS on ice for 30 min; placing the mixture on a magnetic stand to separate the beads and removed the complexes in solution. SA-beads were washed with PBS and combined with the recovered complexes. For control reactions, Qdots were incubated with binding buffer and treated in similar way as the peptide complexes. The concentration of Qdot-peptide complexes was estimated based on the final volume recovered. To label cells with the Qdot-complexes, 100,000 cells were plated on gelatin-coated wells of 24 well plates were incubated for 6 hours; 5 nM of Qdot-peptides in growth media was added to the cells and incubated for 16 h at 37° C. Cells were imaged after washes with PBS to remove the unbound Qdot-complexes.
(§3) For ectoderm differentiation conditions, embryoid bodies (EBs) were formed from colonies by manual techniques and grown in complete NPC media (DMEM-F12:Neurobasal media 1:1+50 μl/ml BIT9500 Serum substitute (Stemgent)+1% GlutaMax+1% penicillin-streptomycin+1 μl/ml B27 supplement (Invitrogen)+5 mM nicotinamide+5 μg/ml insulin+20 ng/ml EGF+20 ng/ml bFGF) in low attachment plates for 6 days; EBs were then plated on fibronectin-coated wells and grown for another 3 days. For mesoderm differentiation conditions, EBs were cultured as above except that media was DMEM-F12 with GlutaMax+20% FBS+1% NEAA+1% penicillin-streptomycin, and plated on 0.1% gelatin-coated wells. For endodermal differentiation conditions, undifferentiated H9 cells were transferred from colonies growing with MEFs to Geltrex™ (Life Technologies, Grand Island, N.Y.)-coated wells and grown for 2 days with MEF-conditioned media+4 ng/ml bFGF. From day 2, cells were grown for another 5 days in RPMI+0.5% FBS+100 ng/ml Activin A.

[3] = system: hPS cells grown under mesoderm differentiation conditions; experiment: as above; assay type: cell-based, human; details: 5 nM, 16 h at 37° C.
Experimental: as §1, §2, §3

7PEND24 cell line = experiment: Qdot peptide complex labeling, flow cytometry; assay type: cell-based, human; details: for cell labeling by peptide Qdot complexes: 7PEND24, in words
Experimental: (§4) FIG. 6. Selectivity of Qdot peptide complexes. Embryonic progenitor cell lines were labeled with Qdot complexes in their corresponding growth media and analyzed by flow cytometry as in (FIG. 5C). Percentage of labeled cells was calculated by setting up gates (allowing up to 1%) using the progenitor cell line labeled with untargeted Qdots and unlabeled cells. 10,000 events were recorded for each sample. Values are from triplicate experiments and shown as mean+/−standard error.
(§5) For flow cytometric analysis of labeled cells, cells were removed from the plates using TrypLE for 5 min at 37° C. Cells were resuspended in PBS, passed through strain top tubes and analyzed using flow cytometer. Control samples included unlabeled cells and cells labeled with untargeted Qdots. For each sample, 10,000 events were quantified. The LSRFortessa flow cytometer (BD Biosciences) was used with a violet laser excitation at 405 nm with a 605/23 bandpass filter to detect Qdot605 and the yellow laser excitation at 561 nm with a 670/30 bandpass filter to detect Qdot655. Cell autofluorescence was detected with the blue laser excited at 488 nm and a 510/25 bandpass filter.
as §2

E15 cells = experiment: Qdot peptide complex labeling, flow cytometry; assay type: cell-based, human
Experimental: as §4, §5, §2

4D20.8 cells = experiment: Qdot peptide complex labeling, flow cytometry; assay type: cell-based, human
Experimental: as §4, §5, §2

W10 progenitor cell line = experiment: Immunofluorescent staining of bound phage; assay type: binding, human; details: peptide display phage, 2×10^10 pfu/well, live cells, 2 h at 37° C.
Experimental: The binding specificity of selected phages was determined by immunofluorescent staining of bound phage to the surface of W10 progenitor cell line. Cells were plated at 100,000 cells/well in 24 well plates and incubated overnight. Phages at 2×10^10 pfu/well were diluted in 0.5 ml of W10 growth media supplemented with 2% BSA and incubated with live cells for 2 h at 37° C. Cells were washed as for the selection experiments and fixed by 4% paraformaldehyde for 20 min at RT. Cells were washed twice with PBS and permeabilized by ice-cold MeOH for 15 min on ice. After another two washes, cells were blocked with 5% goat serum in 2% BSA in PBS for 1 h at RT or overnight at 4° C. Cells were incubated with 1:700 dilution of rabbit anti-Fd bacteriophage antibody (Sigma, B7786) in 2% BSA in PBS for 1 h at RT. Cells were washed with 2 ml of 1% BSA in PBS three times, and incubated with 1:1000 dilution of goat anti-rabbit AlexaFluor568 conjugated antibody (Invitrogen, A11011) in 1% BSA in PBS for 1 h at RT. Cells were counterstained with DAPI at 0.1 μg/ml after final washes and photographed by an Olympus IX71 fluorescence microscope. Images were taken and processed using MetaMorph (version 7.5.6.0, Molecular Devices), ImageJ (version 1.45b, National Institute of Health) or Photoshop (version 9.0.2, Adobe) software.

SM30 cell line = experiment: Qdot peptide complex labeling, flow cytometry; assay type: cell-based, human
Experimental: as §4, §5, §2

MW1 cell line = experiment: Qdot peptide complex labeling, flow cytometry; assay type: cell-based, human
Experimental: as §4, §5, §2

[4] = system: 10 embryonic progenitor cell lines; experiment: Selectivity of Qdot peptide complexes, panel of progenitor lines; assay type: cell-based, human; details: out of the 10 lines; peptide targeted Qdots, flow cytometry
Experimental: as §4, §5
2 μM of Qdot Streptavidin conjugate (Qdot605 ITK SA, Invitrogen, Q10001MP) were diluted in 100 μl of binding buffer (supplied with Qdot605 ITK SA) and incubated with 100-fold excess of biotinylated peptide on ice for 1 h. […]

W10 cells [5] = experiment: Cell labeling with peptide targeted Qdot complexes (microscopy, flow cytometry); assay type: cell-based, human
Experimental: as §5
2 μM of Qdot Streptavidin conjugate (Qdot605 ITK SA, Invitrogen, Q10001MP) were diluted in 100 μl of binding buffer (supplied with Qdot605 ITK SA) and incubated with 100-fold excess of biotinylated peptide on ice for 1 h. Uncoupled biotinylated peptide was removed from the mixture by incubating it with streptavidin magnetic beads equilibrated in PBS on ice for 30 min; placing the mixture on a magnetic stand to separate the beads and removed the complexes in solution. SA-beads were washed with PBS and combined with the recovered complexes. For control reactions, Qdots were incubated with binding buffer and treated in similar way as the peptide complexes. […]

somatic cells = details: cited from earlier work

| Compound | competition of the 2 peptides with each other for W10 cell binding (W10 cells [1]) | specificity of binding (lack of competition with scrambled peptides) (W10 cells [1]) | cell labeling by Qdot complexes [2] | cell labeling by Qdot complexes [3] | cell labeling by peptide Qdot complexes (7PEND24 cell line) | cell labeling by peptide Qdot complexes (E15 cells) | cell labeling by peptide Qdot complexes (4D20.8 cells) | binding of peptide phage detected by immunocytochemical staining (W10 progenitor cell line) | also measured |
| --- | --- | --- | --- | --- | --- | --- | --- | --- | --- |
| GWVIDYDYYPMR (FROM PHAGE DISPLAY LIBRARY) [W10 R2 11, W10 selected 12-mer; tested as M13 display phage, C-terminal biotinylated free peptide and streptavidin Qdot complex] | can compete with each other | sequence specific | a high percentage of cells were labeled | a few small patches of labeled cells | high percentage binding | very little labeling | very little labeling | strongest binding | – |
| YEFDNLLNRTLW (FROM PHAGE DISPLAY LIBRARY) [W10 R2 1, W10 selected 12-mer; tested as M13 display phage, C-terminal biotinylated free peptide and streptavidin Qdot complex] | – | – | highly restricted to a small percentage of cells | no labeling | – | no complex uptake | no complex uptake | strongest binding | cell labeling (7PEND24 cell line; 7PEND24): more than 15%; cell labeling (SM30 cell line): more than 15%; cell labeling (MW1 cell line): more than 15% |
| GWYWETPLDMFN (FROM PHAGE DISPLAY LIBRARY) [W10 R2 21, W10 selected 12-mer; tested as M13 display phage, C-terminal biotinylated free peptide and streptavidin Qdot complex] | can compete with each other | sequence specific | a high percentage of cells were labeled | a few small patches of labeled cells | high percentage binding | very little labeling | very little labeling | strongest binding | competition for peptide phage binding (recovered phage, percentage of no-peptide control) (W10 cells [1]; C-terminal biotinylated free peptide at 5 nM or 5 μM, 4° C.): only significant at 5 μM |
| DWLWSFAPNVDT (FROM PHAGE DISPLAY LIBRARY) [W10 R3 18, W10 selected 12-mer; tested as M13 display phage, C-terminal biotinylated free peptide and streptavidin Qdot complex] | – | sequence specific | a high percentage of cells were labeled | a few small patches of labeled cells | – | – | – | strongest binding | number of embryonic progenitor cell lines with a high percentage of cells bound [4]: 7; percentage of cells labeled with peptide-Qdot complexes (W10 cells [5]; 5 nM Qdot complexes, 16 h at 37° C., gated on untargeted Qdots): 90%; fluorescent shift of labeled cells (W10 cells [5]; compared to untargeted Qdots): strong fluorescent shift |
| CCCC(CCC)C(=O)O [valproic acid] | – | – | – | – | – | – | – | – | increase of reprogramming efficiency (somatic cells; compared to Yamanaka's traditional transcription factor method): 100 fold |
| O=C(NCc1ccccc1)c1csc(Nc2ccncn2)n1 [Thiazovivin] | – | – | – | – | – | – | – | – | increase of reprogramming efficiency (somatic cells; Thiazovivin with the two previous chemicals (SB431412, PD0325901)): 200 fold |

— patent US10227561B2, “Methods and compositions for targeting progenitor cell lines” (Mandala Biosciences, LLC, priority 2012, dated 2019)
